Results reported in publication PMC9817974, “Pharmacokinetic Basis for Using Saliva Matrine Concentrations as a Clinical Compliance Monitoring in Antitumor B Chemoprevention Trials in Humans” (Cancers, 2022).

Columns and labels:
[1] = Sample stability of ATB components (bench, freeze-thaw, short-term, long-term); format: physicochemical; settings: in % (unit assumed)
Description: samples for calibration were prepared. The study and QC samples were prepared on the same day as the UPLC-MS/MS analysis was done.
Calibration curves were prepared the same way as described in section S1.2.2. The linearity of each calibration curve was determined by plotting the peak area ratio of Matr, Maac, Dict, and Frax to I.S. in plasma. […] The lower limit of […] was defined based on a signal-to-noise ratio of 10:1.
S1.2.4 Extraction recovery and matrix effect
The extraction recoveries of Matr, Maac, Dict, and Frax were determined by comparing the relative peak areas obtained from blank plasma spiked with analytes and those obtained from water spiked with the same amounts of analytes. Matrix effect was determined by comparing the peak areas of blank plasma extracts spikes with analytes and I.S. with those of the standard solutions dried and reconstituted with mobile phase. The quality control samples were prepared in plasma.
Bench work (25°C for 4 hours), short-term (-20°C for 7 days), long-term (-80°C for 4 months) and three freeze-thaw cycle stabilities were determined.

[2] = as above; format: physicochemical; settings: in % (unit assumed); remark: listed apart in the source
[3] = Stability of ATB tablets (ICH storage conditions); settings: for remaining percentage in ATB tablets, Long term 3 months / remaining percentage in ATB tablets, Long term 6 months / remaining percentage in ATB tablets, Long term 12 months: 25 ± 2 °C/60 ± 5% RH
Description: Two independent batches of ATB tablets were tested according to International Conference on Harmonization (ICH) Guideline for long-term (12 months at 25 ± 2 °C/60 ± 5% RH), intermediate (6 months at 30 ± 2 °C/65 ± 5% RH), and accelerated (40 ± 2 °C/75 ± 5% RH) stability [12].

[4] = Single-dose oral pharmacokinetic study of ATB tablets in healthy human subjects (plasma and saliva, non-compartmental analysis); format: in vivo; settings: after 2400 mg ATB oral administration; LLOQ of Dict […]
Description: In addition, in vivo correlation between plasma and saliva concentrations was determined as the secondary outcome.
The ratio of drug concentration in plasma and saliva were calculated using Equations (1) and (2). (1) RCmax=Cmax saliva/Cmax plasma (2) RAUC=AUC0–24 saliva/AUC0–24 plasma […]
S2.1. Human Pharmacokinetic Study Design
The study was conducted in two phases. Two self-volunteered subjects participated in the study […]
Participants refrained from consumption of […]
dosing blood and saliva samples were collected. Each participant received single-dose oral […]
saliva sample kit for salivary collection. Plasma samples were then collected by centrifugation of […]
hour post-administration. […]
administration. […] Throughout the […]
collected and saline lock was removed. Participants returned the next day morning for 24-hour […]
Participants fasted 8-12 hours before each

Row | Stability, 3 cycles freeze-thaw ([1]; HQC concentration level) | Stability, Bench work (4 hrs, 25 oC) ([1]; HQC concentration level) | Stability, Short-term (7 days, -20 oC) ([1]; HQC concentration level) | Stability, 3 cycles freeze-thaw ([1]; LOQ concentration level) | Stability, 3 cycles freeze-thaw ([1]; MQC concentration level) | Stability, Bench work (4 hrs, 25 oC) ([1]; MQC concentration level) | Stability, Long-term (6 months, -80 oC) ([2]; HQC concentration level) | Stability, Bench work (4 hrs, 25 oC) ([2]; LOQ concentration level) | Stability, Long-term (6 months, -80 oC) ([2]; LOQ concentration level) | Stability, Short-term (7 days, -20 oC) ([2]; LOQ concentration level) | Stability, Long-term (6 months, -80 oC) ([2]; MQC concentration level) | Stability, Short-term (7 days, -20 oC) ([2]; MQC concentration level) | remaining percentage in ATB tablets, Long term 3 months [3] [%] | remaining percentage in ATB tablets, Long term 6 months [3] [%] | remaining percentage in ATB tablets, Long term 12 months [3] [%] | remaining percentage in ATB tablets, Intermediate 3 months ([3]; 30 ± 2 °C/65 ± 5% RH) [%] | remaining percentage in ATB tablets, Intermediate 6 months ([3]; 30 ± 2 °C/65 ± 5% RH) [%] | remaining percentage in ATB tablets, Accelerated term 3 months ([3]; 40 ± 2 °C/75 ± 5% RH) [%] | remaining percentage in ATB tablets, Accelerated term 6 months ([3]; 40 ± 2 °C/75 ± 5% RH) [%] | Compound | detection in plasma and saliva samples [4]
1 | 114.7 ± 2.8 | 108.7 ± 8.1 | 91.2 ± 8.0 | 113.3 ± 6.4 | 114.6 ± 3.2 | 109.1 ± 5.9 | 92.3 ± 5.7 | 93.8 ± 11.6 | 87.0 ± 5.1 | 99.6 ± 1.4 | 85.5 ± 0.4 | 89.1 ± 11.0 | 81.1 ± 5.3 | 101.6±0.2 | 89.1 ± 4.2 |  |  |  |  | Oc1ccc2c(c1)OC[C@H]1c3cc4c(cc3O[C@@H]21)OCO4 [Maac, maackiain] | detected in 30 min plasma sample of only one participant
2 | 98.9 ± 2.2 | 89.1 ± 9.9 | 99.1 ± 8.0 | 105.7 ± 3.2 | 104.0 ± 1.3 | 90.5 ± 8.0 | 94.8 ± 0.4 | 108.5 ± 5.0 | 85.7 ± 3.6 | 89.6 ± 0.5 | 90.1 ± 5.6 | 96.6 ± 5.8 | 92.4 ± 6.4 | 81.2 ± 10.1 | 93.8 ± 1.0 | 112.5 ± 7.2 | 113.1 ± 7.2 | 84.3 ± 13.2 | 115.8 ± 1.5 | CC1=C2C(=O)O[C@@H](c3ccoc3)[C@]2(C)CCC1 [Frax, fraxinellone] | not detected in any study sample
